Among the data in ChEMBL document CHEMBL4825743, “Novel Substituted Heterocyclic and Heteroaryl Compounds for Treating Huntington's Disease” (ACS Med Chem Lett, 2021) are IC50 values, retold here.

The test concerns the target Huntingtin (Homo sapiens, UniProt P42858). The test is described as follows: Inhibition of Huntingtin protein (unknown origin) incubated for overnight in presence of MW1/MAB2166 monoclonal antibody by ELISA-based MSD electrochemiluminescence assay. Background: ELISA stands for enzyme-linked immunosorbent assay.

For orientation: IC50 means the concentration needed to halve the response being measured.

Huntingtin, sequence (P42858 whole entry): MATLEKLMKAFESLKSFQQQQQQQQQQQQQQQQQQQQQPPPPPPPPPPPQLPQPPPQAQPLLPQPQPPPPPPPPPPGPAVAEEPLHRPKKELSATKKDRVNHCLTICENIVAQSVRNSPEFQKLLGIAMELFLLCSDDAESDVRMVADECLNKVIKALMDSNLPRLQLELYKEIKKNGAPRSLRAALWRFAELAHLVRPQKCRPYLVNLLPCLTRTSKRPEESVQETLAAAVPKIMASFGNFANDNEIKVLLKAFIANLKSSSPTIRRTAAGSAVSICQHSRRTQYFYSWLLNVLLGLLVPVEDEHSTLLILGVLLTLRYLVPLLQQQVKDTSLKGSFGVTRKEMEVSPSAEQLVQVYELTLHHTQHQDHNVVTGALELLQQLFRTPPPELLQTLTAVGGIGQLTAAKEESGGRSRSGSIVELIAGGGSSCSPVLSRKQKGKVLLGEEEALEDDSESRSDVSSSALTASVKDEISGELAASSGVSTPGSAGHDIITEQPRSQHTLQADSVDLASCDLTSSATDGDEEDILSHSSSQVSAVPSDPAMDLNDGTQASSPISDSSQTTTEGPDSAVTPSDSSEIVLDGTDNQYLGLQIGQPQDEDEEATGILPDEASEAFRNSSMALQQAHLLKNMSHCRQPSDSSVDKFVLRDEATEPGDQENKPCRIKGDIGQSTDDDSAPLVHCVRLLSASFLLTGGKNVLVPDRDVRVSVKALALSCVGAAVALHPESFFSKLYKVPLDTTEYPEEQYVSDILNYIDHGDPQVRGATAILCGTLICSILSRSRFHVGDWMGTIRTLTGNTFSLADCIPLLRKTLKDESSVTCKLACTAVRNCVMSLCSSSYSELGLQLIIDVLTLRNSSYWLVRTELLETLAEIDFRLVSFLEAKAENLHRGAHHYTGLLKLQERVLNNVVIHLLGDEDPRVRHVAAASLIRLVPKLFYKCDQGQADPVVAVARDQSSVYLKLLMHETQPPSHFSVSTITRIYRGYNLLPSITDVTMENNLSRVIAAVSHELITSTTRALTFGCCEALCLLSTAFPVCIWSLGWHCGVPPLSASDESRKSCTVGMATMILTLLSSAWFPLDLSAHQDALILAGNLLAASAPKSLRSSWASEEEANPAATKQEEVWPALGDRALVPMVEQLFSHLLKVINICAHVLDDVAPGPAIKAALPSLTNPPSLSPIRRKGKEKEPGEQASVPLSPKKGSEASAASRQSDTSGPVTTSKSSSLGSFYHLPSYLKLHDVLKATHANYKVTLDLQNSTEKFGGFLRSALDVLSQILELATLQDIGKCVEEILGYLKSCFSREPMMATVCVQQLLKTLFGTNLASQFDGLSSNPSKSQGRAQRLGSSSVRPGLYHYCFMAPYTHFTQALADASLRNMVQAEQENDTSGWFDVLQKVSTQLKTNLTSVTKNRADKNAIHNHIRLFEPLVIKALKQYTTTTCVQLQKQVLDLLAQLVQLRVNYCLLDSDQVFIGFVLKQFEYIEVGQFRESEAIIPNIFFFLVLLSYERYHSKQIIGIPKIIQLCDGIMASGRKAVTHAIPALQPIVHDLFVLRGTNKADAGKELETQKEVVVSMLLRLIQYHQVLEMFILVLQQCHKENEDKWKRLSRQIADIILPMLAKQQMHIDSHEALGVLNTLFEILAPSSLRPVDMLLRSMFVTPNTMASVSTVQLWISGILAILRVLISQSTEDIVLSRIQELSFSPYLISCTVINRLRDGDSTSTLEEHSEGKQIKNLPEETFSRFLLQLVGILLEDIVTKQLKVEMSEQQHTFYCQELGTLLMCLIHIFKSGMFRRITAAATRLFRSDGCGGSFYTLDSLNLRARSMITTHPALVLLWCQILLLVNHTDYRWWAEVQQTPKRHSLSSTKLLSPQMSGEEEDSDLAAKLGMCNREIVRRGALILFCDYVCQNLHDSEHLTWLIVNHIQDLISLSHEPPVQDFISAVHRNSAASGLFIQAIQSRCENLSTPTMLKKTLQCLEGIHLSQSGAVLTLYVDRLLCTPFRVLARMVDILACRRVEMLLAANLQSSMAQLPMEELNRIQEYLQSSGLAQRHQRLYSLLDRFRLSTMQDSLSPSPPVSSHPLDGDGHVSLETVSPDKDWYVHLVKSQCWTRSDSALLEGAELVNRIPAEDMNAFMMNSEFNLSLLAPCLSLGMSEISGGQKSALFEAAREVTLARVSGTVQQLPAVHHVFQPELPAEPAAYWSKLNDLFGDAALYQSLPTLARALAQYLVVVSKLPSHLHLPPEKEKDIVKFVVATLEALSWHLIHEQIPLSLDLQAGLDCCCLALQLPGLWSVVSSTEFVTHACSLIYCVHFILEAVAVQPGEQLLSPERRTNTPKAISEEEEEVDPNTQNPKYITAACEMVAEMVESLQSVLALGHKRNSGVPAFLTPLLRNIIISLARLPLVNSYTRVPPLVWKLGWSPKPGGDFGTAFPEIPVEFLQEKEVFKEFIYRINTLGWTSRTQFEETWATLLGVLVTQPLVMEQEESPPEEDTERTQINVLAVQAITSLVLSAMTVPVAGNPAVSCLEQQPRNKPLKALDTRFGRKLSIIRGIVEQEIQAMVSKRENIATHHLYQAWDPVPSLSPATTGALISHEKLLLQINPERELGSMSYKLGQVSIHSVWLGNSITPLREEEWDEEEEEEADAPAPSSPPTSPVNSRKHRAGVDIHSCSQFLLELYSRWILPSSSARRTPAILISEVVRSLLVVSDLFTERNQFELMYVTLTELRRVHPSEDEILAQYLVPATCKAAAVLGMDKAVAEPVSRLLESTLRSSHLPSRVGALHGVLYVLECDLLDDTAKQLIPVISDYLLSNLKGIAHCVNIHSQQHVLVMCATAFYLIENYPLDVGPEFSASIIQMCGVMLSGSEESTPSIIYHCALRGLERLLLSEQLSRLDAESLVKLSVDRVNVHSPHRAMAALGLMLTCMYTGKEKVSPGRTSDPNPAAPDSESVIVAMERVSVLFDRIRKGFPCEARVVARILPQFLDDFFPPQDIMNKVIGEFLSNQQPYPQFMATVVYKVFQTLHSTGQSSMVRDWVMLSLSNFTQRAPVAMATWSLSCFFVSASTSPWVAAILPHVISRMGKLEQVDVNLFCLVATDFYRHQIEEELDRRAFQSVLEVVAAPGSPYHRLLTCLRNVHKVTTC

Regarding `CC1(C)CC(n2nnc3cc(-c4ccc(-c5nncs5)cc4O)nnc32)CC(C)(C)N1`, the IC50 is ≤ 100 nM.
Consider `CC1(C)CC(n2nnc3cc(-c4ccc(-c5nccs5)cc4O)nnc32)CC(C)(C)N1`, for which the IC50 was ≤ 100 nM.
Regarding `CC1(C)C=C(c2csc3cc(-c4ccc(-c5cn[nH]c5)cc4O)nnc23)CC(C)(C)N1`, the IC50 was ≤ 100 nM.
For the compound `COc1ncnc(-c2ccc(-c3cc4nnn(C5CC(C)(C)NC(C)(C)C5)c4nn3)c(O)c2)n1`, the IC50 was ≤ 100 nM.
For the compound `CC1(C)CC(n2nnc3cc(-c4ccc(-c5ncco5)cc4O)nnc32)CC(C)(C)N1`, the IC50 was ≤ 100 nM.
As for `CC1(C)CC(n2nnc3cc(-c4ccc(-n5nccn5)cc4O)nnc32)CC(C)(C)N1` [VOTOPLAM], the figure is ≤ 100 nM.
